In publication PMC3857906, “Ligand-Specific Regulation of the Endogenous Mu-Opioid Receptor by Chronic Treatment with Mu-Opioid Peptide Agonists” (BioMed Research International, 2013):
Read-outs that look alike come from different tables or passages of the source.

Columns and labels:
[1] = Tail-flick (TF) antinociceptive assay after icv peptide administration; format: in vivo, rat; conditions: for treatment duration until behavioral tolerance complete: 10 μg icv twice daily, data not shown
Description: For intracerebroventricular (icv) peptide administration, the rats were implanted with a stainless steel Luer cannula (10 mm long) aimed at the right lateral cerebral ventricle under Nembutal (35 mg/kg, intraperitoneally) anesthesia. The stereotaxic coordinates were 0.2 mm posterior, 1.7 mm lateral to the bregma, and 3.7 mm deep from the dural surface, according to the atlas of Pellegrino et al.. Cannulas were secured to the skull with dental cement and acrylate. The experiments were started 5 days after icv cannulation. All icv treatments were delivered to freely moving animals to prevent unspecific effects. Upon conclusion of the experiments, 10 μL of methylene blue was injected into the ventricle of decapitated animals and the position of the cannula was inspected visually. Animals with improper cannula placement were excluded from the final statistical analysis.
(§1) The peptides were dissolved in artificial cerebrospinal fluid (CSF) and injected in a volume of 2 μL. Endomorphins were administered either acutely at the indicated doses (100 pg–20 μg) or chronically at 20 μg for 10 days (twice daily) and tested at the indicated times. Vehicle control groups obtaining CSF were used in all experiments, and no changes were detected in the antinociceptive response of the control group. […] Animals were killed 16 hrs after drug treatments by decapitation immediately followed by subcellular fractionation.
The original method of D'Amour was used to determine analgesia in the rat by measuring the time required to respond to a radiating heat stimulus. A beam light was focused on the tip of the tail, and the latency required for the rat to remove its tail was determined before (baseline) and after drug administration. The animals were tested at the times shown after injection of the peptides. The antinociceptive effect was expressed according to the equation: (TFn − TFo) × 100/TFmax − TFo, where TFo is the tail-flick latency before drug administration, TFn is the value of a repeated corresponding measurement after drug injection, and TFmax indicates the cutoff time which was set at 10 sec in our assays. Statistical analysis of the data of tail-flick antinociceptive test was made by ANOVA. For significant ANOVA values, groups were compared by Tukey's test for multiple comparisons with unequal cell size. A probability level, P < 0.05, was accepted to label significant differences.

[2] = biological target: T1, mu-opioid receptors (G-protein activation) (Rattus norvegicus, UniProt P33535); assay: Ligand-stimulated [35S]GTPγS functional assay in crude rat brain membranes; format: biochemical
T1 construct: from tissue; host or cells: rat brain without cerebella, crude membranes
Description: (§2) The assay was performed as published with slight modifications. Briefly, rat brain membrane fractions (≈10 μg of protein) were incubated with [^35S]GTPγS (0.05 nM) and 5-6 concentrations (10^−9−10^−4 M) of opioid peptides in the presence of 100 μM GDP in Tris-EGTA (50 mM Tris-HCl, 1 mM EGTA and 5 mM MgCl2; pH 7.4) buffer in a total volume of 1 mL for 60 min at 30°C. Nonspecific binding was determined with 10 μM GTPγS and subtracted. Bound and free [^35S]GTPγS were separated by vacuum filtration through Whatman GF/F filters using a Brandel M24-R Cell Harvester (Brandel, Gaithersburg, MD, USA). Filters were rapidly washed with 3 × 5 mL ice-cold 50 mM Tris-HCl (pH 7.4) buffer, air-dried, and counted in a toluene-based scintillation cocktail in a Wallac 1409 scintillation counter (Wallac, Turku, Finland). All assays were performed in triplicate and repeated at least three times. Curves were constructed and analyzed by fitting sigmoidal dose-response curves using the GraphPad Prism 4 program (GraphPad Prism Software Inc) to obtain potency (EC50, concentration of the ligand to give half-maximal effect) and efficacy (E max, % maximal stimulation over basal activity) values. Basal activities were measured in the absence of opioid ligands and set as 0%. The data reported are means ± S.E.M.

[3] = biological target: T2, mu-opioid receptors (coupling to G-proteins) (Rattus norvegicus, UniProt P33535); assay: DAMGO-stimulated [35S]GTPγS binding in rat brain subcellular fractions (SPM, MI) after in vivo chronic opioid peptide treatment; format: biochemical; conditions: for effect of chronic treatment on G-protein coupling / [35S]GTPγS incorporation: 10 μg icv twice daily for 8 days
T2 construct: fresh forebrains of four rats were pooled, gently homogenized; from tissue; host or cells: rat forebrain, synaptic plasma membrane (SPM) and microsomal (MI) fractions, from vehicle- or peptide-treated animals
Description: The peptides were dissolved in artificial cerebrospinal fluid (CSF) and injected in a volume of 2 μL. […] Animals were killed 16 hrs after drug treatments by decapitation immediately followed by subcellular fractionation.
Subcellular fractions of rat brains were purified as published. Briefly, fresh forebrains of four rats were pooled, gently homogenized in 10 volumes (v/w) of ice-cold buffer (5 mM Tris-HCl pH 7.4, 50 μM CaCl2, 0.5 mM dithiothreitol), and supplemented with 10% sucrose. All sucrose solutions were made in the above buffer. The homogenate was spun at 1,000 ×g for 10 min. The resulting pellet was resuspended in the above buffer and spun again. The combined supernatants were spun at 12,000 ×g for 20 min. The pellets were suspended in 10% sucrose and subjected to consecutive centrifugations at 20,000 ×g for 25 min and 14,000 ×g for 20 min twice resulting in crude synaptic plasma membranes (SPM). The resulting pellets were lysed followed by fractionation on a 10%, 28.5%, and 34% sucrose density step gradient that was spun at 100,000 ×g for 2 h. Highly enriched SPMs were obtained from the 28/34% interface. Crude microsomal (MI) fractions were obtained from the 12,000 ×g supernatant by consecutive centrifugations at 20,000 ×g for 25 min and 100,000 ×g for 1 h. MI fractions were purified on a 10% and 28.5% sucrose step gradient centrifuged at 100,000 ×g for 2 h and collected at 10/28.5% interface. SPM and MI fractions were diluted threefold with 50 mM Tris-HCl buffer and pelleted at 100,000 ×g for 1 h to remove sucrose. The resulting pellets were taken up in 50 mM Tris-HCl (pH 7.4) buffer to yield in 0.3–0.8 mg membrane protein/ml and were freshly used.
as §2

[4] = shown previously; cited from earlier work
[5] = biological target: T3, mu-opioid receptors (Rattus norvegicus, UniProt P33535); assay: [3H]DAMGO homologous displacement binding in rat brain subcellular fractions (SPM, MI) after in vivo treatment; design: fresh forebrains of four rats were pooled, gently homogenized; from tissue; host or cells: rat forebrain, synaptic plasma membrane (SPM) and microsomal (MI) fractions, from vehicle- or peptide-treated animals; conditions: chronic treatment, vs vehicle control
Description: as §1, with “times.” for “times. Vehicle control groups obtaining CSF were used in all experiments, and no changes were detected in the antinociceptive response of the control group.”
Subcellular fractions of rat brains were purified as published. Briefly, fresh forebrains of four rats were pooled, gently homogenized in 10 volumes (v/w) of ice-cold buffer (5 mM Tris-HCl pH 7.4, 50 μM CaCl2, 0.5 mM dithiothreitol), and supplemented with 10% sucrose. All sucrose solutions were made in the above buffer. The homogenate was spun at 1,000 ×g for 10 min. The resulting pellet was resuspended in the above buffer and spun again. The combined supernatants were spun at 12,000 ×g for 20 min. The pellets were suspended in 10% sucrose and subjected to consecutive centrifugations at 20,000 ×g for 25 min and 14,000 ×g for 20 min twice resulting in crude synaptic plasma membranes (SPM). […]
Filters were rapidly washed with 3 × 5 mL ice-cold 50 mM Tris-HCl (pH 7.4) buffer, air-dried, and counted in a toluene-based scintillation cocktail in a Wallac 1409 scintillation counter (Wallac, Turku, Finland). […]

[6] = biological target: T3, mu-opioid receptors; conditions: icv administration, in situ autoradiography; cited from earlier work

T2 sequence (P33535 whole entry): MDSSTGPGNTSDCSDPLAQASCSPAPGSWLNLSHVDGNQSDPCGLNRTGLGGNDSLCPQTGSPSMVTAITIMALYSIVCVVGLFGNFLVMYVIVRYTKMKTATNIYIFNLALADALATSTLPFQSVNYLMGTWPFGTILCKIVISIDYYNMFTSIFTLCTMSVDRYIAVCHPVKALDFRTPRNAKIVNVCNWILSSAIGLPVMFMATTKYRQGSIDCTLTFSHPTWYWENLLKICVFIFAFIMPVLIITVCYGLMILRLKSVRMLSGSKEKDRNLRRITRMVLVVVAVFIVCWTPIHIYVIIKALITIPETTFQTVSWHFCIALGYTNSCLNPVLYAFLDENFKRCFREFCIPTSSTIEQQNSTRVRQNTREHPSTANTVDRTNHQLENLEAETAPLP
T3 sequence (P33535 whole entry): as above
T1 sequence (P33535 whole entry): as above

With `C[C@@H](NC(=O)[C@@H](N)Cc1ccc(O)cc1)C(=O)NCC(=O)N(C)[C@@H](Cc1ccccc1)C(=O)NCCO` [DAMGO, Tyr-D-Ala-Gly-(NMe)Phe-Gly-ol] the “treatment duration until behavioral tolerance complete” value [1] was no more than 8 days, the “agonist character in [35S]GTPγS assay” value [2] was “full agonist” and the “effect of chronic treatment on G-protein coupling / [35S]GTPγS incorporation” value [3] was “did not cause any change”. For the same molecule, the Emax ([3]; read-out: E max (% over basal) MI Treated) was 72 ± 9%, the Emax ([3]; read-out: E max (% over basal) SPM Treated) was 130 ± 14% and the Emax ([3]; read-out: efficacy (E max) of DAMGO in control MI, MI of vehicle administered rats, % over basal) was 85 ± 9%. The Emax ([3]; read-out: efficacy (E max) of DAMGO in control SPM, SPM of vehicle administered rats, % over basal) was 95 ± 5%, the antinociception [4] was “about 80%” and the “time of peak antinociceptive effect” value [4] was “about 30 min”. For the same molecule, the “decrease in the density of surface mu-sites (SPM)” value [5] was 22%.
In the case of `COC(=O)/C=C/C(=O)N[C@@H]1CC[C@@]2(O)[C@H]3Cc4ccc(O)c5c4[C@@]2(CCN3CC2CC2)[C@H]1O5` [beta-funaltrexamine], the “reduction of the density of mu-opioid receptors throughout the brain” value [6] is listed as 40–50%.
With `NC(=O)[C@H](Cc1ccccc1)NC(=O)[C@H](Cc1ccccc1)NC(=O)[C@H]1CCCC[C@H]1NC(=O)[C@@H](N)Cc1ccc(O)cc1` [ACHC-EM2, cis-1S,2R-aminocyclohexanecarboxylic acid^2-endomorphin-2] the “treatment duration until analgesic tolerance complete (antinociceptive effect ceased)” value ([1]; 20 μg icv twice daily, rat tail-flick) was no more than 10 days, the “day by which decrease of antinociceptive effect became statistically significant vs day 1” value ([1]; 20 μg icv twice daily, tested 5 and 15 min after injection) was no more than 5 days and the “time of peak acute antinociceptive effect” value ([1]; rat tail-flick, after icv injection) was 10 to 15 min. The “time by which acute antinociceptive effect dissipated” value ([1]; rat tail-flick, following icv injection) was no more than 40 min and the “increase in analgesic response compared to base-line values” ([1]; rat tail-flick, icv, lower doses, concentration-dependent) was 20–50%.
For Tyr-D-Ala-Gly-(NMe)Phe-CH2Cl [DAMCK], the “treatment duration until behavioral tolerance complete” value [1] is listed as no more than 8 days, the “effect of chronic treatment on G-protein coupling / [35S]GTPγS incorporation” value [3] is listed as “attenuated G-protein coupling in the MI fraction” and the antinociception [4] is listed as “about 80%”. The “duration of antinociception” value [4] was “apparently irreversible antinociception” and the “increase in the density of mu-sites in the MI (light membrane) fraction” value [5] was 40%.
